Here are results for ten compounds from publication PMC12304311, “Sequence-based virtual screening using transformers” (Nature Communications, 2025).

The target in test [1] is T1, EGFR L858R/T790M/C797S kinase (EGFR^LTC) (Homo sapiens, UniProt P00533, C797S/L858R/T790M). In words: HTRF KINASE-TK in vitro kinase inhibition assay, dose response. It is filed as biochemical.
For test [2], the target named is T1, EGFR L858R/T790M/C797S kinase (EGFR^LTC). In words: biochemical. Also on record: HTRF KINASE-TK inhibition assay, EGFR L858R/T790M/C797S, ATP about Km, dose response. The protocol:
A total of 25 nL of each compound was transferred to a 384-well reaction plate (Greiner, Cat#784075) using an Echo655 acoustic dispenser. […] The kinase solution was prepared in 1× kinase reaction buffer (comprising 5 mM MgCl₂, 1 mM DTT, and 1 mM MnCl₂), and 2.5 μL of this solution was added to each well. The plate was centrifuged at 140 g for 1 min and incubated at 25 °C for 10 min. […] This ATP level was selected in accordance with the Cheng-Prusoff equation (where ATP = Km, IC50 = 2Ki) to accurately reflect the inhibitory potency of test compounds. Then, 2.5 μL of the substrate-ATP mixture was added to each well, followed by centrifugation at 140 g for 1 min. The plate was sealed and incubated at 25 °C for 50 min. Subsequently, a 2× detection reagent mixture containing XL665 and anti-phospho-tyrosine antibody in detection buffer was prepared, and 5 μL of this solution was added to each well. The plate was centrifuged again (140 g, 1 min) and incubated at 25 °C for 60 min. Fluorescence emissions at 620 nm (Cryptate) and 665 nm (XL665) were measured using a microplate reader. Each assay condition was tested in duplicate. […] This was achieved by fitting the calculated percentage inhibition and the logarithm of the compound concentrations to a variable slope (four-parameter) nonlinear regression model. The model is expressed by the equation:3 Y=Bottom+Top−Bottom/1+10^LogIC50−X×Hill slope where X denotes the log of the inhibitor concentration and Y represents the percentage inhibition. Furthermore, the percentage of enzymatic activity in the presence of inhibitors, expressed as % Control, is derived by subtracting the % Inhibition from 100%.

One may read the IC50 as the concentration at which inhibition is half-maximal.

T1 sequence (P00533 669-1210 T790M/C797S/L858R limits assumed): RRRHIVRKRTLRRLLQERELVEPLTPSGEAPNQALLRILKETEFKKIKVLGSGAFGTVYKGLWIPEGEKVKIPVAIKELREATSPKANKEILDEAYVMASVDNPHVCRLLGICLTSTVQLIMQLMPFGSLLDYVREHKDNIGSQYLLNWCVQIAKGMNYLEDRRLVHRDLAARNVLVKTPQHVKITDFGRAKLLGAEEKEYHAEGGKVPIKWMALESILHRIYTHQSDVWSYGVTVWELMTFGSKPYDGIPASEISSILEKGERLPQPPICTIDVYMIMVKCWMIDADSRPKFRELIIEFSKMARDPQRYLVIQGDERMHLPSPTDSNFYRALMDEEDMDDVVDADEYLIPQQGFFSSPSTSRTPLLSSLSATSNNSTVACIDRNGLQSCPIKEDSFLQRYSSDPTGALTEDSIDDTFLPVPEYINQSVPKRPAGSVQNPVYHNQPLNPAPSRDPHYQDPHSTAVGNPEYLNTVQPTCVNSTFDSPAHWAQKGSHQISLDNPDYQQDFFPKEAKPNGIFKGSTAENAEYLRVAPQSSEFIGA

Turning to `CC(=O)c1cnc2ccc(-c3cc(Cl)c(O)c(Cl)c3)nc2c1N[C@H]1CC[C@H](CN(C)C)CC1` [C1], in test [1], the IC50 stood at 0.0055 µM.
In test [2], `CN(C)CC#Cc1ccc(OCCCc2sc(N3CCc4cccc(C(=O)Nc5nc6ccccc6s5)c4C3)nc2C(=O)O)c(F)c1` [C2] returned an IC50 above 10 µM.
The compound `CC1(C)CCC(CN2CCN(c3ccc(C(=O)NS(=O)(=O)c4ccc(NCC5CCOCC5)c([N+](=O)[O-])c4)c(Oc4cnc5[nH]ccc5c4)c3)CC2)=C(c2ccc(Cl)cc2)C1` [C3] showed an IC50 in test [2] above 10 µM.
Regarding `COc1cc2nccc(Oc3ccc(NC(=O)c4cn(C(C)C)c(=O)n(-c5ccc(F)cc5)c4=O)cc3F)c2cc1OC` [C5], the IC50 was below 10 µM in test [1] and 2.74 µM in test [2].
Consider `CC(C)N(C[C@H]1O[C@@H](n2cnc3c(N)ncnc32)[C@H](O)[C@@H]1O)[C@H]1C[C@@H](CCc2nc3cc(C(C)(C)C)ccc3[nH]2)C1` [C6], for which, in test [2], the IC50 is above 10 µM.
For the compound `CCc1cc(Nc2nccc(-c3c(-c4ccc(OC)c(C(=O)Nc5c(F)cccc5F)c4)nc4ccccn34)n2)c(OC)cc1N1CCC(N2CCN(S(C)(=O)=O)CC2)CC1` [C7], the results for the IC50 in test [1] and in test [2] were below 10 µM and 3.58 µM, respectively.
The compound `N[C@@H]1c2cccnc2[C@H](OC(=O)N2CCC(n3c(=O)[nH]c4ncccc43)CC2)CC[C@H]1c1cccc(F)c1F` [C8] registered an IC50 in test [2] above 10 µM.
For `CC(=O)O[C@]1(C(C)=O)CC[C@H]2[C@@H]3CCC4=CC(=O)CCC4=C3[C@@H](c3ccc(N(C)C)cc3)C[C@@]21C` [C9], in test [2], the IC50 is above 10 µM.
Turning to `COc1cc(N2CCC(N(C)C)CC2)ccc1Nc1ncc(Cl)c(Nc2ccccc2P(C)(C)=O)n1` [C10], in test [1], half-maximal inhibition (IC50) was put at 0.0012 µM.
`N#Cc1ccnc(Nc2cc(C3CCN(C4COC4)CC3)cc(N3CCC(F)(F)C3)n2)c1` [C11]: the values for the IC50 in test [1] and in test [2] were below 10 µM and 0.106 µM, respectively.
